Test in all cases: NCI tumour cell line growth inhibition, 48 h
The subject of assay [1] is ACHN renal.
Assay [2] has as its system BT-549 breast.
The subject of assay [3] is HCC-2998 colon.
The test system of assay [4] is HL-60(TB) leukemia.
Assay [5] deals with MALME-3M melanoma.
Assay [6] has as its system MCF7 breast.
Assay [7] has as its system MDA-N.
Assay [8] concerns NCI-H23 lung.
Assay [9] concerns OVCAR-5 ovarian.
For assay [10], the system named is SF-268 CNS.

Results on 20 molecules are retold here after PubChem BioAssay (NCI).

Molecules are shown by their SMILES.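 Interpolation was linear, between the two tested concentrations surrounding the appropriate level; five concentrations were tested over 48 hours in 96-well plates. TGI denotes the concentration required for complete inhibition of growth.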

Take `CC1(O)C(=O)OC2CC([C@]3(O)CCC4[C@@H]5C[C@H]6O[C@]67[C@@H](O)C=CC(=O)[C@]7(C)C5CC[C@@]43C)C1(C)C2` (stereo not given in full): the TGI in assay [1] was 73.8 µM; in assay [2] it was 26.1 µM; in assay [3], greater than 100 µM; in assay [4] it was 19.9 µM; in assay [5], 16.6 µM; in [6] it was greater than 33 µM. For the same molecule, the TGI in assay [7] is 17.9 µM; in assay [8] it was 25.1 µM; in assay [9] it was 74.1 µM; in assay [10] it was greater than 92 µM.
`CCCC(=O)OC1CC(n2cc(F)c(=O)[nH]c2=O)OC1CO` (stereo not given): the TGI in assay [1], in assay [2], in assay [3], in [4], in [5] and in assay [6] was greater than 10 µM throughout. Further, the TGI in assay [7] was greater than 10 µM; in assay [8], 1.11 µM; in assay [9] it was greater than 10 µM; in assay [10], greater than 10 µM.
With `O=c1oc2ccccc2c(O)c1Cc1cccc(Cc2c(O)c3ccccc3oc2=O)c1`, the TGI in [1], in assay [2], in assay [3], in assay [4], in [5] and in [6] was greater than 100 µM each time. Besides, the TGI in [7], in [8], in assay [9] and in assay [10] was greater than 100 µM each time.
As to `N#Cc1c(-c2ccc(Cl)cc2)cc(-c2nc3ccccc3[nH]2)nc1N`, the TGI in assay [1] came out at 45.2 µM; in [2], 30.5 µM; in assay [3] it was 14.3 µM; in [4] it was 58.7 µM; in [5], 32.5 µM; in [6], 20.1 µM. Besides, the TGI in assay [7] was found to be 23.7 µM; in assay [8], 35.3 µM; in assay [9], 43.4 µM; in assay [10], 34.6 µM.
Turning to `Cc1nn(-c2ccccn2)c2c1C(SC#N)=C(C=O)CC2`, the TGI in [1] stood at 29.8 µM; in assay [2], 38.9 µM; in assay [3], 24.2 µM; in assay [4], 16 µM; in assay [5] it was 36.2 µM; in [6], 24.2 µM. Also, the TGI in assay [7] was found to be 38.6 µM; in assay [8], 32.2 µM; in assay [9], 20.7 µM; in assay [10], 33 µM.
As to `COc1ccc(N2C(=O)/C(=C/c3ccc(N(CCC#N)CCC#N)cc3)N=C2c2ccccc2)c(OC)c1`, the TGI in assay [1], in [2], in [3], in assay [4], in assay [5] and in assay [6] was greater than 100 µM throughout. Besides, the TGI in assay [7], in assay [8], in assay [9] and in [10] was greater than 100 µM in each case.
As to `O=C(Nc1nc(C23CC4CC(CC(C4)C2)C3)cs1)c1cc2cc([N+](=O)[O-])ccc2oc1=O`, the TGI in assay [1] is greater than 100 µM; in [2], 40.4 µM; in assay [3], greater than 100 µM; in assay [4], greater than 100 µM; in assay [5] it was greater than 100 µM; in assay [6], greater than 100 µM. For the same molecule, the TGI in assay [7], in [8], in [9] and in [10] was greater than 100 µM each time.
Regarding `O=S(=O)(O)c1ccc(Nc2ccnc3cc(Cl)ccc23)cc1`, the TGI in [1], in [2], in assay [3], in assay [4], in [5] and in [6] was greater than 100 µM in each case. Also, the TGI in [7], in assay [8], in assay [9] and in [10] was greater than 100 µM throughout.
As to `CCCCCCCCC[n+]1cccc(C2C(C(=O)OCC)=C(C)NC(C)=C2C(=O)OCC)c1`, the TGI in [1] was 28.5 µM; in assay [2] it was 4.51 µM; in assay [3], 21.1 µM; in assay [4] it was 6.25 µM; in assay [5], 4.67 µM; in assay [6], 6.74 µM. Besides, the TGI worked out at 4.39 µM in [7], 17.8 µM in assay [8], 24.6 µM in [9] and 16.9 µM in assay [10].
With `COc1ccc(C(C)NNC(=O)c2ccncc2)cc1F` (stereo not given), the TGI in assay [1], in [2], in assay [3], in assay [4], in assay [5] and in [6] was greater than 100 µM throughout. Besides, the TGI in assay [7], in assay [8], in [9] and in assay [10] was greater than 100 µM each time.
For the molecule `N#Cc1c(C#N)c(-c2ccccc2)n(/N=C\c2ccccc2)c1N`, the TGI in assay [1] was greater than 100 µM; in [2] it was greater than 100 µM; in [3] it was 89.9 µM; in assay [4] it was greater than 100 µM; in assay [5], greater than 100 µM; in assay [6], greater than 100 µM. In addition, the TGI in assay [7], in [8], in assay [9] and in [10] was greater than 100 µM in each case.
On to `COC1=CC(=O)c2c(cc(COP(=O)(N(C)CCBr)N(C)CCBr)n2C)C1=O`, for which the TGI in assay [1] is 0.492 µM; in assay [2], 3.94 µM; in assay [3] it was 1.77 µM; in assay [4], greater than 100 µM; in [5], 2.95 µM; in [6], 8.42 µM. For the same molecule, the TGI is 2.77 µM in assay [7], 2.28 µM in assay [8], 4.35 µM in assay [9] and greater than 38.2 µM in assay [10].
Take `COC(=O)c1c(C#C[Si](C)(C)C)c(C#C[Si](C)(C)C)c(C#C[Si](C)(C)C)c(C#C[Si](C)(C)C)c1C(=O)OC`: the TGI in [1], in assay [2], in [3], in [4], in assay [5] and in assay [6] was greater than 100 µM throughout. Besides, the TGI in assay [7], in assay [8], in assay [9] and in [10] was greater than 100 µM in each case.
In the case of `Cc1nnc(CC#N)n1NC(=O)CC#N`, the TGI in assay [1], in assay [2], in assay [3], in assay [4], in [5] and in assay [6] was greater than 100 µM throughout. In addition, the TGI in [7], in [8], in [9] and in assay [10] was greater than 100 µM in each case.
Regarding `O=C(NCc1ccccc1)c1c(O)c2ccccc2[nH]c1=O`, the TGI in [1], in [2], in assay [3], in assay [4], in assay [5] and in assay [6] was greater than 100 µM throughout. Also, the TGI in [7], in [8], in assay [9] and in assay [10] was greater than 100 µM each time.
On to `O=c1c(-c2ccc(O)cc2)coc2cc(O)cc(O)c12`, for which the TGI in assay [1], in assay [2], in assay [3], in assay [4], in assay [5] and in assay [6] was greater than 100 µM in each case. The TGI in [7], in assay [8], in [9] and in [10] was greater than 100 µM in each case.
On to `Cc1cccc(C(O)c2cccnc2)c1O` (stereo not given), for which the TGI in assay [1], in assay [2], in assay [3], in assay [4], in [5] and in assay [6] was greater than 100 µM each time. The TGI in assay [7], in [8], in assay [9] and in [10] was greater than 100 µM throughout.
Regarding `S=C(Nc1ccc2c(c1)Cc1ccccc1-2)Nc1ccc2c(c1)Cc1ccccc1-2`, the TGI was greater than 100 µM in assay [1]; greater than 100 µM in [2]; greater than 100 µM in assay [3]; 22.4 µM in assay [4]; greater than 100 µM in assay [5]; greater than 100 µM in assay [6]. For the same molecule, the TGI in [7], in [8], in assay [9] and in [10] was greater than 100 µM in each case.
Regarding `O=C(NCc1cccnc1)C(=O)NCc1cccnc1`, the TGI in assay [1] is greater than 100 µM; in assay [2], greater than 100 µM; in [3] it was greater than 100 µM; in [4], 64.7 µM; in assay [5], greater than 100 µM; in [6], greater than 100 µM. Further, the TGI in [7], in assay [8], in assay [9] and in assay [10] was greater than 100 µM each time.
`Nc1ccc(-c2nc3ccccc3s2)cc1`: the TGI in assay [1] is 31.8 µM; in [2], 28.9 µM; in [3], greater than 100 µM; in [4], 61.6 µM; in [5], 45 µM; in assay [6], 39.4 µM. Besides, the TGI is 35.2 µM in [7], 43.1 µM in assay [8], 36.5 µM in assay [9] and 31.4 µM in [10].
